The record followed here is patent US9408859B2, “Pharmaceutical compositions useful for preventing and treating cancer” (Mitotech SA, priority 2007, dated 2016).

Data set [1] can be described thus: Mouse life-span when managed in a chamber without sterile aeration. The class given is in vivo. As to conditions: SkQ1 added to drinking water.
Data set [2] has as its system human rhabdomyosarcoma cell line (RD). Briefly: RD cell morphology, attachment and multinuclear cells. In kind it is cell-based. The method, then:
In the following experiment, a human rhabdomyosarcoma cell line (RD) purchased from the ATCC (#CCL-136) was used. These cells were isolated from a […] 7 years ago and are widely accepted as a model for studies of rhabdomyosarcoma in vitro and in vivo.
The cells were grown in Dulbecco's modified Eagle's medium (DMEM, Gibco®, Invitrogen, Carlsbad, Calif.) supplemented with 10% FBS. The cells were treated with 20 nM SkQ (SkQ1, SkQR1, SkQB1, or SkQBP1), or with a non-targeted antioxidant (1 mM NAC, or 100 μM Trolox) 24 to 72 hours before evaluation. In some experiments 1 μM of the protonophorous uncoupler FCCP was added 1 hour before the addition of SkQ1 to depolarize the mitochondrial membrane, and thus to prevent the electrophoretic accumulation of SkQ in the mitochondrial interior. The cells were then stained with rabbit polyclonal antibodies against actin (1:1000) (Sigma-Aldrich Corp., Baleras, Russia) and monoclonal antibody DM1A against tubulin (1:1000) (Sigma-Aldrich Corp.), and their morphology examined using an Axiovert fluorescent microscope equipped with objectives 20× (dry) and 100× (oil immersion Neofluar) (Carl Zeiss, Germany).

For data set [3], the system named is Mouse Ras-transformed fibroblast cells. Put plainly: Effect on morphology and adherence of Ras-transformed cells. The class given is cell-based. The method, then: The experiment was carried out using cells, transformed with genetic construct, expressing oncogene RAS, and thus modeling conditions of cells underwent cancerous transformation. (see, model description in Levina, et al. (1996), Exp. Cell. Res., November 25; 229(1):159-165).
Mouse Ras-transformed fibroblast cells had strongly expressed changed morphology (FIG. 1), one close to morphology of metastasizing cancerous cells (decrease in surface square, cell elongation). […] Cells were poorly adherent and spread-eagled what led to monolayer structure disorder.
However incubation with SkQ1 led to significant changes in cells morphology (FIG. 1). […] Morphological changes correlated with actinic fibrils increase in content, focal contact reinforcement and cell better adherence to the surface.

The test system of a further data set is HCT116 p53+/+. Put plainly: Growth of human large intestine carcinoma xenografts, wild type p53. In kind it is in vivo, mouse. The conditions noted are these: SkQ1 in drinking water, 0.5-50 nM/kg/day, 4 weeks. The source says: (§1) Two human large intestine carcinoma cell sub-lines that differ by p53 status—wild type cells (HCT116 p53+/+)) and cells with inactivated p53 (HCT116 p53−/−)) cell line cultivation see in Bunz et al. (1998) Science, 282:1497-1500; see model description in Sablina et al. (2003), J. Biol. Chem., 278:27362-27371. One million cells were hypodermically implanted into thymus-deprived mice. Mice in each group were divided into 4 sub-groups of 10 mice: one group received water to drink; one group received water with SkQ1 (0.01 nmol) per mouse per day (0.5 nM/kg/day); one group received water with SkQ1 (0.1 nmol) per mouse per day (5 nM/kg/day); one group received water with SkQ1 (1 nmol) per mouse per day (50 nM/kg/day).
(§2) The size of the tumors was evaluated every 3 days. After 4 weeks mice were sacrificed and the tumors removed and fixed for histological assay.
In general terms: Xenograft models place foreign cells or tissue in a host animal.

Data set [4] can be described thus: Tolerance to the treatment and autopsy in mice with A-431 xenografts. In kind it is in vivo. The method, then: Tolerance to the treatment was estimated according to the time of death which corresponded to the treatment with each preparation.
Mice were sacrificed by ether anesthesia overdose. An autopsy was performed, and tumors were then extracted and assayed histologically and immunohistochemically. Tumors were fixed in 10% formaldehyde and set into paraffin wax. Histological assays were carried out on tumor histological sections, stained with hematoxylin and eosin. The number of microvessels was examined by standard immunological method using antibodies to CD34 antigen. Presence of vessel mimicry was estimated by tumor section staining with Schiffs reagent.

For a further data set, the system named is HCT116 p53−/−. Briefly: Growth of human large intestine carcinoma xenografts, inactivated p53. The class given is in vivo, mouse.
Source text: as §1, §2

Setting [5] is: Experiment 1, 5.0 nM/kg ip daily day 1-14.
Setting [6] is: Experiment 1, 50.0 nM/kg ip daily day 1-14.
Setting [7] is: Experiment 3, 5.0 nM/kg ip daily day 1-14.

Consider `CC1=C(C)C(=O)C(CCCCCCCCCC[P+](c2ccccc2)(c2ccccc2)c2ccccc2)=CC1=O` [SkQ1], for which the “Immunity to infectious diseases (by mouse life-span)” value in data set [1] is “increased HIV mice immunity to infectious diseases”. Further, in data set [2] (20 nM, pretreatment for 24 hours), the Cell morphology entry was “induced the formation of elongated cells”. Besides, the “Multinuclear cells in surviving cell fraction” value in data set [2] (8th day of cultivation with SkQ1) is “enriched in multinuclear cells”. Further, in data set [2] (8th day of cultivation with nM SkQ1), the “cells remained attached to the surface” value is given as “about 4%”. In data set [3] (Ras-transformed fibroblasts incubated with SkQ1), the “Mean cell surface square value” is “increased manifold”. The Monolayer formation result in data set [3] (Ras-transformed fibroblasts treated with SkQ1) is recorded as “formed monolayers similar to those of normal fibroblasts”. The “Tumor growth vs control group receiving pure water” value is reported as “suppression of tumor growth” in the data set with HCT116 p53+/+ and “suppression of tumor growth” with HCT116 p53−/− (SkQ1 in drinking water, 0.5-50 nM/kg/day, 4 weeks, inactivated p53). Also, the “Autopsy findings in organs” value was “no visual signs of pathological changes” in data set [4] (setting [5]); “no pathological changes” in data set [4] (setting [6]); “no visual signs of pathological changes” in data set [4] (Experiment 2, 5.0 nM/kg ip daily day 1-8); “no visual signs of pathological changes” in data set [4] (setting [7]). The Treatment tolerance result in data set [4] (setting [5]), in data set [4] (setting [6]) and in data set [4] (setting [7]) was “satisfactory” each time. Moreover, the “Effect on tumors with inactivated p53 compared to WT p53” value in the data set on HCT116 p53−/− (SkQ1 in drinking water) is given as “stronger effect on the tumor with inactivated p53”. For the same compound, the “dose of maximal effect” value with HCT116 p53−/− (added to drinking water) is reported as 5 nM. The same compound showed an efficient concentration in the data set on HCT116 p53−/− (in drinking water, equals 5 nM/kg/day, stated for the HCT116 study) of 0.1 nmol per mouse per day.
